Experimental data from article PMC4992173, “Divergent synthesis and identification of the cellular targets of deoxyelephantopins” (Nature Communications, 2016).

Biological target: T1, PPARγ D174A (Homo sapiens, UniProt P37231, D174A)
T1 construct: host or cells: 293T
Assay: Gel-based competitive IC50 determination in 293T lysates: D174A PPARγ
Assay type: binding
Conditions: D174A PPARγ expressed in 293T cells, lysate, 1 h, then 10 μM 24c-Cy3
Text: Finally, we sought to understand the molecular basis for PPARγ binding by the synthetic analogues of deoxyelephantopin through identification of the precise covalently modified amino acid site. There is literature precedent for oxidized fatty acids containing an α,β-unsaturated ketone to form a covalent bond with a cysteine in the ligand-binding site of PPARγ[53]. More recently, synthetic ligands binding reversibly to a distinct site were identified. […] Bearing in mind that the structurally simplified, and thus less prone to MS/MS fragmentation, probe 23c binds PPARγ as efficiently as 24c (Supplementary Fig. 13), we treated the recombinant nuclear receptor with the former compound, digested the protein and analysed the resulting peptides by LC–MS/MS. […]
Supplementary figure 21: Top: Fluorescence gels corresponding to the IC50 curves presented in the main text Figure 8b. γ fluorescence signal in percentage after 19a treatment. […]
Biological materials. […] Protein concentration was determined using the Bradford assay (Bio-Rad).
Cell culture and preparation of lysates. […] Cells were lysed by sonication to form cell lysates and protein concentration was determined using the Bradford […]

T1 sequence (P37231 whole entry D174A): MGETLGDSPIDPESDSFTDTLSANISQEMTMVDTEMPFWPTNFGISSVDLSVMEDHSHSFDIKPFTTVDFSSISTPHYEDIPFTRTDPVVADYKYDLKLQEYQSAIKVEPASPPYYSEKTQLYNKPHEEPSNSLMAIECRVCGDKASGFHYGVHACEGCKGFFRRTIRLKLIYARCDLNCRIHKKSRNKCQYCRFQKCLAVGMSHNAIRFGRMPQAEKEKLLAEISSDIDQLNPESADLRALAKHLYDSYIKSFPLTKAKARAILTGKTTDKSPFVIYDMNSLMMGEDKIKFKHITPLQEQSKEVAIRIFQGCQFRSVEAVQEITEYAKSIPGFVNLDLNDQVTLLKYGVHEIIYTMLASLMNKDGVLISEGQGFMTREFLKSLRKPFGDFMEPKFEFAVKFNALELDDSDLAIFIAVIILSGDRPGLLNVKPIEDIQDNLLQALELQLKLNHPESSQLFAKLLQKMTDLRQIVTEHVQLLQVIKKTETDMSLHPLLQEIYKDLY

Compound `C=C(C)C(=O)O[C@H]1CC2=C[C@H](C/C=C\[C@H]3OC(=O)C(=C)[C@H]13)OC2=O` [19a] has an IC50 of 58 µM.
